# From ChEMBL document CHEMBL5257058, “Passive Membrane Permeability of Sizable Acyclic β-Hairpin Peptides” (ACS Med Chem Lett, 2023)
# Where a SMILES comes first, the peptide text is derived from it. Bridges are numbered along the chain shown (N, C = ends).
# Tests used:
# [1] = Retention time of the compound by RP-HPLC analysis; format: physicochemical
# [2] = Kinetic solubility of compound in phosphate buffer at pH 7.4 by UV analysis; format: physicochemical; settings: read-out: Kinetic_solubility
# [3] = Octanol/buffer partition coefficient, logD of the compound at pH 7.4 incubated for 24 hrs by shake flask method based UV analysis; format: physicochemical
# [4] = Apparent membrane permeability of the compound in PBS buffer at pH 7.4 measured after 24 hrs by PAMPA assay; format: ADME
# [5] = Kinetic solubility of the compound by RP-HPLC analysis
Retention_time [1] [min],solubility kinetic [2] [µM],logD at 24 h [3],Papp at 24 h [4] [×10⁻⁶ cm/s],kinetic solubility [5] [µM],Retention time [1] [min],Compound
22,10,-0.6,3.71,–,–,CSCC[C@@H]1NC(=O)[C@H](CC(=O)O)NC(=O)[C@H](Cc2ccccc2)NC(=O)[C@H](CCCNC(=N)N)NC(=O)[C@H](Cc2ccc(O)cc2)NC(=O)[C@H](CC(=O)O)NC(=O)[C@H](CCCNC(=N)N)NC(=O)[C@H](CCCNC(=N)N)NC(=O)[C@H](C)NC(=O)[C@@H](NC(=O)[C@H](Cc2c[nH]c3ccccc23)NC(=O)[C@@H](N)CCCNC(=N)N)CSSC[C@@H](C(=O)N[C@@H](Cc2c[nH]c3ccccc23)C(=O)N[C@@H](CCC(=O)O)C(=O)O)NC(=O)[C@H](Cc2c[nH]c3ccccc23)NC(=O)[C@H](Cc2ccc(O)cc2)NC(=O)[C@H](CC(=O)O)NC(=O)[C@H](Cc2ccccc2)NC(=O)CNC1=O (H-RWCARRDYRFDMGFDYWCWE-OH; disulfide 3-18)
18.8,18000,-1.9,0.26,–,–,H-RGVARRDYRGDPGFDYWHWE-OH
21.9,70,-1.3,0.38,–,–,H-RWVARAYGNYGYIDVWHWE-OH
24.1,2,0.6,4.15,–,–,H-RWVARAYGNYWYIDVWHWE-OH
21.2,260,-0.5,2.05,–,–,H-RWVAREGGWFGELAFNYWVWE-OH
21.1,690,0.3,0.02,–,–,H-RWVAREGMNTDGYFDYWHWE-OH
23.3,20,1.2,0.42,–,–,H-RWVAREGMNTDWYFDYWHWE-OH
21.8,10,-0.5,2.55,–,–,H-RWVARRDYRFDMGFDYWHWE-OH
23.1,10,0.2,2.18,–,–,H-RWVARRDYRFDMGFDYWVWE-OH
22.6,50,0.7,4.04,–,–,H-RWVARRDYRFDMGFNYWVWE-OH
20.3,40,0.7,0.07,–,–,H-RWVARRDYRGDMGFDYWHWE-OH
21.5,20,0.6,1.59,–,–,H-RWVARRDYRGDMGFDYWVWE-OH
20.9,60,-0.8,0.02,–,–,H-RWVARRDYRGDMGFNYWVWE-OH
–,20,-0.4,0.14,21900,–,H-RWVKRRDYRFDMGFDYWVWE-OH
19.5,1800,-1.3,0.02,–,–,H-RWVKRRDYRGDMGFDYWVWE-OH
23,20,-1.1,2.61,–,–,H-RWVVRRDYRFDMGFDYWVWE-OH
–,30,-0.9,0.04,–,20.6,H-RWVVRRDYRGDMGFDYWVWE-OH
23.2,140,0.8,0.2,–,–,H-RWVWRDLDIATTRDYWVWE-OH
25.2,20,0.1,5.28,–,–,H-RWVWRDYRFDMGFDWVWE-OH
23.3,20,0.9,0.01,–,–,H-RWVWRDYRGDMGFDWVWE-OH
22.8,530,0.9,0.09,–,–,H-RWVWSPDSSGVAYWVWE-OH

Compound,Retention_time [1] [min],solubility kinetic [2] [µM],logD at 24 h [3],Papp at 24 h [4] [×10⁻⁶ cm/s],kinetic solubility [5] [µM],Retention time [1] [min]
CC(=O)CC(c1ccccc1)c1c(O)c2ccccc2oc1=O (stereo not given) [WARFARIN],–,–,–,7.06,–,–
